From patent US10081632B2, “Substituted tetrahydropyrido[3′,2′:4,5]pyrrolo[1,2-α]pyrazine-2-carboxamides as RSK inhibitors” (Phoenix Molecular Designs, priority 2016, dated 2018)
Structures can show the parent of a compound that is named as a salt.

Columns and labels:
SUM149-PTXR cells [1] = experiment: Monolayer growth inhibition, crystal violet assay; assay type: cell-based; settings: Homo sapiens; SUM149-PTXR (TNBC, BRCA Mutant), 5 days, single dose on day 1
Text: (§1) In all instances a single dose was given on day 1 of the experiment.

4T1 cells [2] = experiment: Monolayer growth inhibition, crystal violet assay; assay type: cell-based; settings: Mus musculus; 4T1 (TNBC), 5 days, single dose on day 1
Text: as §1

HCC1143 cells [3] = experiment: Monolayer growth inhibition, crystal violet assay; assay type: cell-based; settings: Homo sapiens; HCC1143 (TNBC), 5 days, single dose on day 1
Text: as §1

MDA-MB-435 cells [4] = experiment: Monolayer growth inhibition, crystal violet assay; assay type: cell-based; settings: Homo sapiens; MDA-MB-435 (Melanoma), 5 days, single dose on day 1
Text: as §1

MDA-MB-231 cells [5] = experiment: Monolayer growth inhibition, crystal violet assay; assay type: cell-based; settings: Homo sapiens; MDA-MB-231 (TNBC), 5 days, single dose on day 1
Text: as §1

PC3 cells [6] = experiment: Monolayer growth inhibition, crystal violet assay; assay type: cell-based; settings: Homo sapiens, PC-3; PC3 (Prostate), 5 days, single dose on day 1
Text: as §1

SUM149 cells [7] = experiment: Monolayer growth inhibition, crystal violet assay; assay type: cell-based; settings: Homo sapiens; SUM149 (TNBC, BRCA Mutant), 5 days, single dose on day 1
Text: as §1

MDA-MB-468 cells [8] = experiment: Monolayer growth inhibition, Alamar blue assay; assay type: cell-based; settings: Homo sapiens; MDA-MB-468 (TNBC), 5 days, single dose on day 1
Text: as §1

HCC1937 cells [9] = experiment: Monolayer growth inhibition, Alamar blue assay; assay type: cell-based; settings: Homo sapiens; HCC1937 (TNBC, BRCA Mutant), 5 days, single dose on day 1
Text: as §1

4T1 cells [10] = experiment: Monolayer growth inhibition, Alamar blue assay; assay type: cell-based; settings: Mus musculus; 4T1 (TNBC), 5 days, single dose on day 1
Text: as §1

HCC1143 cells [11] = experiment: Monolayer growth inhibition, Alamar blue assay; assay type: cell-based; settings: Homo sapiens; HCC1143 (TNBC), 5 days, single dose on day 1
Text: as §1

MDA-MB-435 cells [12] = experiment: Monolayer growth inhibition, Alamar blue assay; assay type: cell-based; settings: Homo sapiens; MDA-MB-435 (Melanoma), 5 days, single dose on day 1
Text: as §1

JIMT-1 cells [13] = experiment: Monolayer growth inhibition, Alamar blue assay; assay type: cell-based; settings: Homo sapiens; JIMT-1 (HER2), 5 days, single dose on day 1
Text: as §1

MDA-MB-231 cells [14] = experiment: Monolayer growth inhibition, Alamar blue assay; assay type: cell-based; settings: Homo sapiens; MDA-MB-231 (TNBC), 5 days, single dose on day 1
Text: as §1

PC3 cells [15] = experiment: Monolayer growth inhibition, Alamar blue assay; assay type: cell-based; settings: Homo sapiens, PC-3; PC3 (Prostate), 5 days, single dose on day 1
Text: as §1

SUM149 cells [16] = experiment: Monolayer growth inhibition, Alamar blue assay; assay type: cell-based; settings: Homo sapiens; SUM149 (TNBC, BRCA Mutant), 5 days, single dose on day 1
Text: as §1

All cell lines [17] = experiment: Monolayer growth inhibition, Alamar blue assay, range over all cell lines; assay type: cell-based; settings: 120 h; range of IC50 over all cell lines of the table; read-out: IC50 Values - Alamar Blue (5 Days), Range, All
Text: as §1

[18] = tested on: phosphorylated Y-box binding protein-1 (YB-1) at serine 102 (P-YB-1S102); experiment: Immunoblotting of cell signalling, loss of P-YB-1 in MDA-MB-231 cells; settings: Homo sapiens, MDA-MB-231, read-out: IC50 values for P-YB-1
MDA-MB-468 cells [19] = experiment: Soft agar growth inhibition assay; assay type: cell-based, Human; settings: Homo sapiens; MDA-MB-468 (TNBC), 14-22 days
All cell lines [20] = experiment: Monolayer growth inhibition, crystal violet assay, range over all cell lines; assay type: cell-based; settings: 120 h; range of IC50 over all cell lines of the table; read-out: IC50 Values - Crystal Violet (5 Days), Range, All
Text: (§2) In all instances a single dose was given on day 1 of the experiment. […] Complete (100%) growth suppression was achievable with several of the compounds in multiple different cell lines.

SUM149-PTXR cells [21] = experiment: Monolayer growth inhibition, Alamar blue assay; assay type: cell-based, Human; settings: Homo sapiens; SUM149-PTXR (TNBC, BRCA Mutant), 5 days, single dose on day 1
Text: as §1

MDA-MB-231 cells [22] = experiment: Soft agar growth inhibition assay; assay type: cell-based; settings: Homo sapiens; MDA-MB-231 (TNBC), 14-22 days; read-out: IC50 Values - Soft Agar (14-22 Days)
MDA-MB-468 cells [23] = experiment: Monolayer growth inhibition, crystal violet assay; assay type: cell-based; settings: Homo sapiens; MDA-MB-468 (TNBC), 5 days, single dose on day 1
Text: as §2

HCC1937 cells [24] = experiment: Monolayer growth inhibition, crystal violet assay; assay type: cell-based; settings: Homo sapiens; HCC1937 (TNBC, BRCA Mutant), 5 days, single dose on day 1
Text: as §2

JIMT-1 cells [25] = experiment: Monolayer growth inhibition, crystal violet assay; assay type: cell-based; settings: Homo sapiens; JIMT-1 (HER2), 5 days, single dose on day 1
Text: as §2

[26] = Solubility assessment, 20 mg/ml solution; assay type: physicochemical
Procedure: Solubility is an important property for therapeutic drug candidates. Poor solubility can lead to low bioavailability resulting in suboptimal drug delivery. It can also prevent the evaluation of test agents in animals because the concentration(s) needed to achieve the desired effect cannot be achieved to poor solubility. For solubility assessments, small molecules targeting RSK were compared. For these assessments, 100 mM solutions of the compounds dissolved in DMSO were diluted in DMEM growth media (Life Technologies) supplemented with fetal bovine serum (FBS, Life Technologies) and 100 units/ml penicillin and 100 units/ml streptomycin (Life Technologies) to make 20 mg/ml solutions. Once diluted, the solutions were vortexed and examined for the formation of precipitates. […] For Compound 26, a 100 mM solution of the compound dissolved in DMSO was diluted in phosphate buffered saline (Life Technologies) to make a 20 mg/ml solution. The stock of […] was chosen because this is the upper end of what would be required to dose mice for a range of studies including MTD, PK, PD and efficacy. The pH of this solution was determined to be 2, as previously described. […] At high concentrations some RSK inhibitors were highly soluble while others were not. Compound 0 is (R)—N-(1-benzyl-1H-pyrazol-4-yl)-9-methyl-6-oxo-6,7,8,9-tetrahydropyrido[3′,2′:4,5]pyrrolo[1,2-a]pyrazine-2-carboxamide. Compound 0 was not soluble, whereas Compounds 18, 20, 21, 25 and 26 were soluble under the same conditions (Table 5).

4T1 cells [27] = experiment: Soft agar growth inhibition assay; assay type: cell-based; settings: Mus musculus; 4T1 (TNBC), 14-22 days; read-out: IC50 Values - Soft Agar (14-22 Days)
Procedure: Two agar (Alfa Aesar) solutions (0.8% w/v and 0.4% w/v) were prepared in ultrapure water. The 0.8% agar solution was mixed in equal volumes with 2× media previously prepared from powder (Life Technologies) following the manufacturer's instructions and filter sterilized. The 0.8% agar and media solution was added to 24 well plates (Mandel Scientific) at 500 μl per well. The plates were placed in a humidified incubator at 37° C. with 5% CO2. Next, the 0.4% agar solution was mixed in equal volumes with 2× media. Breast cancer cell lines were added to this solution to achieve a final concentration of 2×10^4 cells per well and […] was added to each well on top of the bottom agar and media layer. […] The plates were returned to the incubator for 10-32 days, with a re-dosing of compounds or DMSO every 7 days. After 10-32 days, colonies were counted in 3 different fields of view for each well.
Representative compounds described herein were tested in the soft agar growth inhibition assay against the 4T1 breast cancer cell line.

For `C[C@@H]1CNC(=O)c2cc3ccc(C(=O)Nc4cnn(Cc5ccc(CN)cc5)c4)nc3n21` [Compound 26, (R)—N-(1-(4-(aminomethyl)benzyl)-1H-pyrazol-4-yl)-9-methyl-6-oxo-6,7,8,9-tetrahydropyrido[3′,2′:4,5]pyrrolo[1,2-a]pyrazine-2-carboxamide hydrochloride salt], which IC50 (SUM149-PTXR cells [1]) is on record?
Its IC50 is 6.5 ± 2.1 µM.

What about the IC50 (4T1 cells [2]) of the same compound?
The IC50 was 4.9 ± 1.1 µM.

What about the IC50 (HCC1143 cells [3]) of the same compound?
The IC50 was 7.3 ± 2.7 µM.

And the IC50 (MDA-MB-435 cells [4])?
Its IC50 is 1.6 ± 0.3 µM.

What about the IC50 (MDA-MB-231 cells [5]) of the same compound?
The IC50 was 3.7 ± 1.8 µM.

And the IC50 (PC3 cells [6])?
The IC50 was 1.5 ± 0.5 µM.

And the IC50 (SUM149 cells [7])?
The IC50 was 6.5 ± 4.4 µM.

What about the IC50 (MDA-MB-468 cells [8]) of the same compound?
Its IC50 is 2.5 ± 0.7 µM.

And the IC50 (HCC1937 cells [9])?
The IC50 was 5.6 ± 0.4 µM.

What about the IC50 (4T1 cells [10]) of the same compound?
Its IC50 is 6.2 ± 2.5 µM.

What about the IC50 (HCC1143 cells [11]) of the same compound?
The IC50 was 9.6 ± 6.1 µM.

And the IC50 (MDA-MB-435 cells [12])?
Its IC50 is 3.9 ± 1.3 µM.

And the IC50 (JIMT-1 cells [13])?
The IC50 was 15.5 ± 6.6 µM.

And the IC50 (MDA-MB-231 cells [14])?
Its IC50 is 7.4 ± 1.7 µM.

What about the IC50 (PC3 cells [15]) of the same compound?
Its IC50 is 1.9 ± 0.8 µM.

And the IC50 (SUM149 cells [16])?
Its IC50 is 9.8 ± 5.7 µM.

What about the IC50 (All cell lines [17]) of the same compound?
Its IC50 is 1.9 to 15.5 µM.

And the IC50 [18]?
Its IC50 is 0.047 µM.

And the IC50 (MDA-MB-468 cells [19])?
Its IC50 is 2 ± 0.2 µM.

And the IC50 (All cell lines [20])?
Its IC50 is 1.5 to 12.3 µM.

And the IC50 (SUM149-PTXR cells [21])?
The IC50 was 8.8 ± 2.5 µM.

What about the IC50 (MDA-MB-231 cells [22]) of the same compound?
The IC50 was 0.2 ± 0.1 µM.

What about the IC50 (MDA-MB-468 cells [23]) of the same compound?
Its IC50 is 1.7 ± 0.2 µM.

And the IC50 (HCC1937 cells [24])?
The IC50 was 6.6 ± 1.6 µM.

And the IC50 (JIMT-1 cells [25])?
The IC50 was 12.3 ± 3.2 µM.

What about the “Solubility after addition of 4M NaOH” value ([26]; 20 mg/ml in PBS, pH equal to 9) of the same compound?
The value was “remained in solution”.

And the “Solubility, 20 mg/ml Solution” value ([26]; 100 mM in DMSO diluted in PBS to 20 mg/ml, hydrochloride salt)?
The value was “Soluble”.

And the “pH of 20 mg/ml solution” value ([26]; DMSO stock diluted in PBS, pH test strips, hydrochloride salt)?
The value was 2-9.

What about the IC50 (4T1 cells [27]) of the same compound?
The IC50 was 5.3 ± 1.3 µM.
